From US20210369680A1, “METHODS OF TREATING DISEASES AND DISORDERS RESULTING FROM BETA CORONAVIRUS INFECTION” (T3D Therapeutics, Inc., priority 2020, published 2021)
Where “and” joins values, the source holds several entries; their conditions need not be identical. Equal entries are not always repeated.

Columns and labels:
[1] = FDG-PET relative cerebral metabolic rate for glucose, clinical study; format: in vivo, human; settings: for R CMRgl change (EOT-BL) relative to average Whole Brain: combined dose groups
Source text: FDG-PET Data from Clinical Study with Compound of Example 11
FDG-PET scans were obtained at three clinical sites.
Increases and decreases in relative regional glucose metabolism (A R CMRgl (EOT-BL)) were observed over the treatment period.

[2] = Fasting plasma glucose in 2-week clinical study; format: in vivo, human; parameters: FPG on Day 1 / FPG on Day 14 / FPG on Day 21 / FPG Change from D 1 to D 14 / FPG Change from D 1 to D 21: unit not given here
Source text: Fasting Plasma Glucose Levels for Compound 11 from a Clinical Study
FPG measured in millimoles/Liter (MMOL/L), averaged over all subjects, was lowered from day 1 to day 14. For each individual dose group day 14 FPG levels were lower than day 1 levels. […] For the two highest doses, the FPG remained lower on follow-up testing on day 21, one week after end of treatment.

P-glycoprotein (P-gp) = biological target: T1, P-glycoprotein (P-gp) (Homo sapiens, UniProt P08183); assay: Effect of P-gp inhibitor verapamil on Caco-2 permeability; format: in vitro ADME
T1 construct: endogenous in cells; host or cells: Caco-2 cells
Source text: Example 18: Effect of P-gp Inhibitor Verapamil on Caco-2 Permeability of Compound of Example 11

human PPARδ = biological target: T2, human PPARδ (Homo sapiens, UniProt Q03181); assay: Human PPAR activation, transient transfection study in transfected CV-1 cells; format: cell-based
T2 construct: expressed in transfected cells; host or cells: CV-1 cells
T2 sequence (Q03181 1-441): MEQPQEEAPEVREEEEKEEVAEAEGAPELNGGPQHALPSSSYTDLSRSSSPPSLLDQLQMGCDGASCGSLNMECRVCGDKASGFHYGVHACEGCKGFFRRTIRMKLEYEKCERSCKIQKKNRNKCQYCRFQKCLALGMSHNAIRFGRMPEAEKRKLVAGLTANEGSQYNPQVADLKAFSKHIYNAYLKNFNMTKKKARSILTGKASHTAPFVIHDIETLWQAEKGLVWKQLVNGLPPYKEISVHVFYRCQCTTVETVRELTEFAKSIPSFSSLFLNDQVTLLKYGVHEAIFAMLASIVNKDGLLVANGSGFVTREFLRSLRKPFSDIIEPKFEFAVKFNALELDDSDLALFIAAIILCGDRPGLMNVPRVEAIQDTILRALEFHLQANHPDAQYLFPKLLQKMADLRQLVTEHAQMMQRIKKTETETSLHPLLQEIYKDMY

[3] = Rat brain penetrance pharmacokinetics after oral dosing; format: in vivo, male Sprague-Dawley rats; settings: for B/P Ratio / Brain Tissue Cone. / Plasma Conc.: individual rats; for Average (B/P Ratio): mean of 3 rats
Source text: Determination of Brain to Plasma Ratios for Compound of Example 11
For compounds of the present disclosure to be effective in treating cognitive impairment, it must have an ability to cross the BBB and penetrate the brain. […] The plasma exposure as measured by AUClast was 9569±1190 hr*ng/mL.

T1 sequence (P08183 whole entry): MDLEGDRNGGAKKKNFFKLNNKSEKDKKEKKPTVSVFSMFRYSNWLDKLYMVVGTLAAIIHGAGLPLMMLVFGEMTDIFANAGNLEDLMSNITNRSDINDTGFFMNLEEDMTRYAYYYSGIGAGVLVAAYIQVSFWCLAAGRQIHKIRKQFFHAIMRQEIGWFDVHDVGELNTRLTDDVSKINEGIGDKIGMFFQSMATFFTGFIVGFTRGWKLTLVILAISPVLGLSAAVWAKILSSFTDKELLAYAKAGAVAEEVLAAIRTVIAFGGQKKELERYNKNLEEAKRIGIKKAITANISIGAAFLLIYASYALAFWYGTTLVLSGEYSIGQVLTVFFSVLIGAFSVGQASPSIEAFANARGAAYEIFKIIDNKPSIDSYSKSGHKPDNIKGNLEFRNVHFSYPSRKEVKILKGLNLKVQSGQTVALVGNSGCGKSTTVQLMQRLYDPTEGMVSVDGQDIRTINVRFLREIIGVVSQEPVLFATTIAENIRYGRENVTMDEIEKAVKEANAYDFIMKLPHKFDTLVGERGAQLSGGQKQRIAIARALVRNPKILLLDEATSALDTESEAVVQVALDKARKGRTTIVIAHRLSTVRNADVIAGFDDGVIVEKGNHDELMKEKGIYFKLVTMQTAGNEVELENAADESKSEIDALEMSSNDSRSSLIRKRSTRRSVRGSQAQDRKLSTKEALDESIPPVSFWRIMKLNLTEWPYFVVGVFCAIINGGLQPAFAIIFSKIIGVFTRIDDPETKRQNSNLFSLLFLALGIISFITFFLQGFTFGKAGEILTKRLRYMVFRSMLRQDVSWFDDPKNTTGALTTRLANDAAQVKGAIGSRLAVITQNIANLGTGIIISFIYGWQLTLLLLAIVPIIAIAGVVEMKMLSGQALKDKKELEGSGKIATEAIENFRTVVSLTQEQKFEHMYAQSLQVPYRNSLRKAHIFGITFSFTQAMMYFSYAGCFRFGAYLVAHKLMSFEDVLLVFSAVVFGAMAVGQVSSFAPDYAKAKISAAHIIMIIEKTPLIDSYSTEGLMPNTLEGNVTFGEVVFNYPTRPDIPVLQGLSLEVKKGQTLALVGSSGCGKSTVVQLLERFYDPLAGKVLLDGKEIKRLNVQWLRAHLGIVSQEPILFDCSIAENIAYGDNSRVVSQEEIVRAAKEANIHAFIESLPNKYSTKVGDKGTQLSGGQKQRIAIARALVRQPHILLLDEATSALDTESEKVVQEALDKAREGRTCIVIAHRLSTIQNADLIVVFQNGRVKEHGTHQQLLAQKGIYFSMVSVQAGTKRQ

**Q.** Which results are given for CCc1oc(-c2ccc(OC)cc2)nc1CCOc1ccc2c(c1)CC[C@H]2CC(=O)[O-].[Na+] [Example 11, Sodium (S)-2-(5-(2-(5-ethyl-2-(4-methoxyphenyl)oxazol-4-yl)ethoxy)-2,3-dihydro-1H-inden-1-yl)acetate]?
**A.** spatial extent of ROSDs with positive R CMRgl change (p<0.005) ([1]; 10 mg): 70 voxels; spatial extent of ROSDs with positive R CMRgl change (p<0.005) ([1]; 90 mg): 2136 voxels; R CMRgl change (EOT-BL) relative to average Whole Brain ([1]; Cingulum Ant L): 0.03 ± 0.04; R CMRgl change (EOT-BL) relative to average Whole Brain ([1]; Cingulum Ant R): 0.02 ± 0.05; R CMRgl change (EOT-BL) relative to average Whole Brain ([1]; Cingulum Ant intersection L): 0.04 ± 0.05; R CMRgl change (EOT-BL) relative to average Whole Brain ([1]; Cingulum Ant intersection R): 0.03 ± 0.04; R CMRgl change (EOT-BL) relative to average Whole Brain ([1]; Insula L): 0.02 ± 0.03; R CMRgl change (EOT-BL) relative to average Whole Brain ([1]; Insula R): 0.02 ± 0.04; R CMRgl change (EOT-BL) relative to average Whole Brain ([1]; Insula intersection L): 0.03 ± 0.03; R CMRgl change (EOT-BL) relative to average Whole Brain ([1]; Insula intersection R): 0.03 ± 0.04; R CMRgl change (EOT-BL) relative to average Whole Brain ([1]; Orbital front intersection L): 0.03 ± 0.04; R CMRgl change (EOT-BL) relative to average Whole Brain ([1]; Orbital front intersection R): 0.03 ± 0.03; R CMRgl change (EOT-BL) relative to average Whole Brain ([1]; Putamen L): 0.05 ± 0.07; R CMRgl change (EOT-BL) relative to average Whole Brain ([1]; Putamen R): 0.05 ± 0.06; R CMRgl change (EOT-BL) relative to average Whole Brain ([1]; Putamen intersection L): 0.06 ± 0.06; R CMRgl change (EOT-BL) relative to average Whole Brain ([1]; Putamen intersection R): 0.06 ± 0.06; FPG Change from D 1 to D 14 ([2]; 3 mg): −2.2; FPG Change from D 1 to D 21 ([2]; 3 mg): 2.5; FPG on Day 1 ([2]; 3 mg): 94.6; FPG on Day 14 ([2]; 3 mg): 92.4; FPG on Day 21 ([2]; 3 mg): 97.1; FPG Change from D 1 to D 14 ([2]; 10 mg): −3.4; FPG Change from D 1 to D 21 ([2]; 10 mg): 0.5; FPG on Day 1 ([2]; 10 mg): 101.4; FPG on Day 14 ([2]; 10 mg): 98; FPG on Day 21 ([2]; 10 mg): 101.9; FPG Change from D 1 to D 14 ([2]; 30 mg): −4.6; FPG Change from D 1 to D 21 ([2]; 30 mg): −0.1; FPG on Day 1 ([2]; 30 mg): 99.2; FPG on Day 14 ([2]; 30 mg): 94.6; FPG on Day 21 ([2]; 30 mg): 99.1; FPG Change from D 1 to D 14 ([2]; 90 mg): −7.0; FPG Change from D 1 to D 21 ([2]; 90 mg): −4.7; FPG on Day 1 ([2]; 90 mg): 101.1; FPG on Day 14 ([2]; 90 mg): 94.1; FPG on Day 21 ([2]; 90 mg): 96.4; Fasting Plasma Glucose (FPG) levels ([2]; 2-week clinical study, 34 subjects): lowered as a function of dose; FPG Change from D 1 to D 14 ([2]; All subjects): −4.3; FPG Change from D 1 to D 21 ([2]; All subjects): −1; FPG on Day 1 ([2]; All subjects): 99.1; FPG on Day 14 ([2]; All subjects): 94.8; FPG on Day 21 ([2]; All subjects): 98.1; substrate for P-gp (P-glycoprotein (P-gp)): not a substrate; Peak effect PPARδ (human PPARδ): 17.68; greater potency in activating human PPARδ over human PPARγ (human PPARδ): 15 fold; selectivity over the human PPAR alpha subtype (human PPARδ): ~30 fold; Emax (human PPARδ; CV-1, read-out: Average % maximal response PPARδ): 76%; Brain/Plasma ratio ([3]; 1 hour, rat, oral 3 mg/kg): 0.361±0.142; B/P Ratio ([3]; 1.0 hr): 0.36 and 0.51 and 0.22; Brain Tissue Cone. ([3]; 1.0 hr): 161 ng/g and 101 ng/g and 226 ng/g; Plasma Conc. ([3]; 1.0 hr): 453 ng/mL and 199 ng/mL and 1020 ng/mL; Average (B/P Ratio) ([3]; 1.0 hr): 0.361; Brain/Plasma ratio ([3]; 3 hours, rat, oral 3 mg/kg): 0.220±0.033; B/P Ratio ([3]; 3.0 hr): 0.26 and 0.21 and 0.19; Brain Tissue Cone. ([3]; 3.0 hr): 234 ng/g and 269 ng/g and 274 ng/g; Plasma Conc. ([3]; 3.0 hr): 1270 ng/mL and 1430 ng/mL; Average (B/P Ratio) ([3]; 3.0 hr): 0.220; Brain/Plasma ratio ([3]; 5 hours, rat, oral 3 mg/kg): 0.171±0.011; B/P Ratio ([3]; 5.0 hr): 0.17 and 0.18 and 0.16; Brain Tissue Cone. ([3]; 5.0 hr): 208 ng/g and 247 ng/g and 333 ng/g; Plasma Conc. ([3]; 5.0 hr): 1260 ng/mL and 1340 ng/mL and 2040 ng/mL; Average (B/P Ratio) ([3]; 5.0 hr): 0.171; Brain/Plasma ratio ([3]; 7 hours, rat, oral 3 mg/kg): 0.328±0.154; B/P Ratio ([3]; 7.0 hr): 0.16 and 0.35 and 0.47; Brain Tissue Cone. ([3]; 7.0 hr): 203 ng/g and 216 ng/g; Plasma Conc. ([3]; 7.0 hr): 1240 ng/mL and 368 ng/mL and 462 ng/mL; Average (B/P Ratio) ([3]; 7.0 hr): 0.328; Brain/Plasma ratio ([3]; 12 hours, rat, oral 3 mg/kg): 0.350±0.077; B/P Ratio ([3]; 12.0 hr): 0.30 and 0.44 and 0.31; Brain Tissue Cone. ([3]; 12.0 hr): 104 ng/g and 114 ng/g and 117 ng/g; Plasma Conc. ([3]; 12.0 hr): 345 ng/mL and 259 ng/mL and 377 ng/mL; Average (B/P Ratio) ([3]; 12.0 hr): 0.350; average plasma half-life ([3]; rat, oral 3 mg/kg): 3.33 h; plasma Cmax ([3]; rat, oral 3 mg/kg): 1547 ± 248 ng/mL; plasma exposure AUClast ([3]; rat, oral 3 mg/kg): 9569 ± 1190 ng·h/mL
